Measured values: patent US20090182019A1, “Histone deacetylase inhibitors” (The Johns Hopkins University, priority 2005, published 2009)
Where a name gives a salt, the structure may show the parent alone.

Assays:
HDAC [1] = assay: Inhibition of isolated HDAC, commercial Fluor de Lys assay (HeLa cell nuclear extract); format: biochemical; conditions: 1 μM inhibitor; average of three determinations
Procedure: This is a facile and rapid 96-well plate-based assay that is suitable for use as a high throughput screen. The reaction mixture contains a HeLa cell nuclear extract and a commercial substrate containing acetylated lysine side chains. The substrate and extract are incubated in the presence of the appropriate concentration of the inhibitor. Deacetylation of the substrate followed by mixing with the provided developer generates a fluorophore. Comparison of inhibited vs. control relative fluorescence using a standard plate reader is employed to determine percent HDAC activity remaining. All determinations can be carried out in triplicate, and reported values can be the average of these determinations.
Compounds were evaluated for their ability to inhibit isolated HDAC at 1 μM in the Fluor de Lys™ assay system.

[2] = system: ML-1 human myelocytic leukemia line; assay: Cell viability in ML-1 cells, MTT assay; format: cell-based; conditions: ML1, 3 days and 7 days of exposure, 0.1 to 100 μM, read-out: IC50, toxicity to ML-1 cells (MTT)
Source text: The well characterized ML-1 human myelocytic leukemia cell line was used to obtain the results presented below in the Examples section. This line has a well characterized response to HDAC inhibitors and is amenable for use in rapid in vitro screening of compounds to evaluate growth inhibitory effects. In addition to the ML-1 cells, the well characterized HCT 116 human colon adenocarcinoma may be used. […]
The MTT (3-[4,5-dimethylthiazol-2-yl]2,5-diphenyl tetrazolium bromide) reduction assay for growth inhibition studies may also be employed. […] HCT 116 cells are seeded at a density of 5×10^4 cells/ml and ML-1 cells are seeded at 2×10^4/ml and are treated for a period of 96 hr prior to dye reduction and plate reading. […]
Compound 19 was evaluated in a series of cell viability studies in the ML-1 human myelocytic leukemia line. […] Compound 19, as well as the positive controls TSA and MS-275, were compared at concentrations between 0.1 and 100 μM, and cell viability was determined in the ML-1 cultured cell preparation at 3 days (FIG. 4) and 7 days (FIG. 5) using a standard MTT assay. […] In a separate set experiments, cell viability was determined under the same conditions by direct cell count. […]

[3] = system: ML-1 human myelocytic leukemia line; assay: Cell viability in ML-1 cells, direct cell count; format: cell-based; conditions: ML1, 3 and 7 days of exposure, read-out: IC50, toxicity to ML-1 cells (direct cell count)
Procedure: ML-1 cells were maintained in RPMI medium supplemented with 10% fetal calf serum, 0.1 mg/mL gentamicin, and 2 mM L-glutamine. 3×10^5 cells/ml were treated with 1 (Wako Pure Chemicals, Richmond, Va.), 2 (Mitsui Pharmaceuticals, Chiba, Japan) and the desired test compound for the concentration and time indicated in the figure legend.
Compound 19 was evaluated in a series of cell viability studies in the ML-1 human myelocytic leukemia line. The results of these studies are outlined in FIGS. 4-7. Compound 19, as well as the positive controls TSA and MS-275, were compared at concentrations between 0.1 and 100 μM, and cell viability was determined in the ML-1 cultured cell preparation at 3 days (FIG. 4) and 7 days (FIG. 5) using a standard MTT assay. […] In a separate set experiments, cell viability was determined under the same conditions by direct cell count. As before, TSA and MS-275 produced significant toxicity at both 3 and 7 days, again with IC50 values less than 10 μM.

HDAC [4] = assay: Inhibition of isolated HDAC, commercial Fluor de Lys assay (HeLa cell nuclear extract); format: biochemical; design: dose or concentration left out as unconfirmed; conditions: TSA as positive control

Structure (SMILES): CC(/C=C/C(=O)NO)=C\[C@@H](C)C(=O)c1ccc(N(C)C)cc1 [Compound 1, trichostatin]
- Inhibition of HDAC at 1 μM (%) (HDAC [1]): 100%
- IC50 [2]: < 10 µM
- IC50 [3]: < 10 µM

Structure (SMILES): CN(C)c1ccc(CNCCCCNC(=O)CCCCCCC(=O)NO)cc1 [Compound 12, 7-{4-[4-N,N-(Dimethylamino)benzyl]aminobutyl}-carbamoylheptanohydroxamic Acid]
- Inhibition of HDAC at 1 μM (%) (HDAC [1]): 33.89%

Structure (SMILES): O=C(CCCCC(=O)NCCCNCCCNCCCNCCCNCC1CCCCCC1)NO [Compound 9, 22-(N-[2-(Cycloheptyl)methyl]amino)-6-oxo-7,11,15,19-tetraazadocosanohydroxamic Acid]
- Inhibition of HDAC at 1 μM (%) (HDAC [1]): 41.03%

Structure (SMILES): O=C(CCCCC(=O)NCCCCN(Cc1ccccc1-c1ccccc1)Cc1ccccc1-c1ccccc1)NO [Compound 10]
- Inhibition of HDAC at 1 μM (%) (HDAC [1]): 3.74%

Structure (SMILES): Cc1ccc(CNCCCCNC(=O)CCCCCCC(=O)NO)cc1 [Compound 17, 7-{4-[4-(Methyl)benzyl]aminobutyl}carbamoylheptanohydroxamic Acid]
- Inhibition of HDAC at 1 μM (%) (HDAC [1]): 53.2%

Structure (SMILES): CC(C)(C)c1ccc(CNCCCCNCCCNC(=O)CCCCC(=O)NO)cc1 [Compound 11, 15-N-[(4-tert-Butyl)benzyl]amino-6-oxo-7,11-diazapentadecanohydroxamic Acid dihydrobromide]
- Inhibition of HDAC at 1 μM (%) (HDAC [1]): 74.86%
- Dose-response for inhibition of HDAC (relative potency) (HDAC [4]): essentially equipotent

Structure (SMILES): Cc1ccc(CNCCCCNC(=O)CCCCC(=O)NO)cc1 [Compound 7, 5-{4-[4-(Methyl)benzyl]aminobutyl}carbamoylpentanohydroxamic Acid]
- Inhibition of HDAC at 1 μM (%) (HDAC [1]): 44.17%

Structure (SMILES): O=C(CCCCCCCCC(=O)NCCCNCCCCNCCC(c1ccccc1)c1ccccc1)NO [Compound 69]
- Inhibition of HDAC at 1 μM (%) (HDAC [1]): 73%

Structure (SMILES): CN(C)c1ccc(CN(CCCCN)C(=O)CCCCCCC(=O)NO)cc1 [Compound 18, 7-{[4-(Amino)butyl]-N-[4-(dimethylaminobenzyl)-carbamoyl]}heptanohydroxamic Acid]
- Inhibition of HDAC at 1 μM (%) (HDAC [1]): 15.6%

Structure (SMILES): CN(C)c1ccc(CCNCCCCNCCCNC(=O)CCCCCCC(=O)NO)cc1 [Compound 68]
- Inhibition of HDAC at 1 μM (%) (HDAC [1]): 46%

Structure (SMILES): O=C(CCCCCCCC(=O)NCCCNCCCCNCCC(c1ccccc1)c1ccccc1)NO [Compound 71]
- Inhibition of HDAC at 1 μM (%) (HDAC [1]): 54%

Structure (SMILES): CN(C)c1ccc(CN(CCCNCCCCN)C(=O)CCCCC(=O)NO)cc1 [Compound 14]
- Inhibition of HDAC at 1 μM (%) (HDAC [1]): 59.99%
- Dose-response for inhibition of HDAC (relative potency) (HDAC [4]): essentially equipotent

Structure (SMILES): Nc1ccccc1NC(=O)c1ccc(CNC(=O)OCc2cccnc2)cc1 [Compound 2, MS-275]
- Inhibition of HDAC at 1 μM (%) (HDAC [1]): 100%
- IC50 [2]: < 10 µM
- IC50 [3]: < 10 µM

Structure (SMILES): O=C(CCCCC(=O)NCCCCNCc1ccccc1-c1ccccc1)NO [Compound 5, 5-{4-[2-(Phenyl)benzyl]aminobutyl}carbamoylpentanohydroxamic Acid]
- Inhibition of HDAC at 1 μM (%) (HDAC [1]): 16.34%

Structure (SMILES): O=C(CCCCCC(=O)NCCCNCCCCNCCC(c1ccccc1)c1ccccc1)NO [Compound 70]
- Inhibition of HDAC at 1 μM (%) (HDAC [1]): 46%

Structure (SMILES): CN(C)c1ccc(CN(CCCNCCCCN)C(=O)CCCCCCC(=O)NO)cc1 [Compound 72]
- Inhibition of HDAC at 1 μM (%) (HDAC [1]): 58%

Structure (SMILES): O=C(CCCCC(=O)NCCCNCCCCNCCC(c1ccccc1)c1ccccc1)NO [Compound 20, 15-N-[4-(3,3-diphenyl)propyl]amino-6-oxo-7,11-diazapentadecanohydroxamic Acid dihydrobromide]
- Inhibition of HDAC at 1 μM (%) (HDAC [1]): 19.75%

Structure (SMILES): CC(C)(C)c1ccc(CNCCCCNCCCNC(=O)CCCCC(=O)O)cc1 [Compound 13]
- Inhibition of HDAC at 1 μM (%) (HDAC [1]): 1.48%

Structure (SMILES): CC(C)(C)c1ccc(CNCCCCNCCCNC(=O)CCCCCCC(=O)NO)cc1 [Compound 15, dihydrobromide]
- Inhibition of HDAC at 1 μM (%) (HDAC [1]): 49.36%

Structure (SMILES): CN(C)c1ccc(CNCCCCNC(=O)CCCCC(=O)NO)cc1 [Compound 16, 5-{4-[4-N,N-(Dimethyl)aminobenzyl]amino}butylcarbamoylpentanohydroxamic Acid]
- Inhibition of HDAC at 1 μM (%) (HDAC [1]): 10.32%

Structure (SMILES): O=C(CCCCCCC(=O)NCCCNCCCNCCCNCCC(c1ccccc1)c1ccccc1)NO [Compound 67]
- Inhibition of HDAC at 1 μM (%) (HDAC [1]): 55%
